≈ marks a conversion by molar mass, not a printed value. Read-outs that look alike come from different tables or passages of the source.
Tests used:
[1] = tested on: MRC5 (human lung fibroblast); assay: In vitro cytotoxicity; format: cell-based; details: for inhibition at 10 µM: MRC5, 10^−5 M, read-out: % of cellular growth inhibition; for inhibition at 1 µM: MRC5, 10^−6 M, read-out: % of cellular growth inhibition (converted)
Protocol: (§1) In vitro cytotoxicity was assayed on three cell lines—KB (human mouth carcinoma), MCR5 (human lung fibroblast) and HCT116 (human colon tumor). Results are presented in table III as % of cellular growth inhibition in presence of 10^−5 M and 10^−6 M of the tested bis-indolic derivatives.

[2] = tested on: KB (human mouth carcinoma); assay: In vitro cytotoxicity; format: cell-based; details: KB; for inhibition at 10 µM: 10^−5 M, read-out: % of cellular growth inhibition; for inhibition at 1 µM: 10^−6 M, read-out: % of cellular growth inhibition (converted)
Protocol: as §1

[3] = tested on: HCT116 (human colon tumor); assay: In vitro cytotoxicity; format: cell-based; details: for inhibition at 10 µM: HCT-116, HCT116, 10^−5 M, read-out: % of cellular growth inhibition; for inhibition at 1 µM: HCT-116, HCT116, 10^−6 M, read-out: % of cellular growth inhibition (converted)
Protocol: as §1

[4] = tested on: S. epidermidis CIP 103627; assay: MIC microdilution (Table I-1); format: cell-based, Staphylococcus epidermidis; details: Staphylococcus epidermidis, CIP103627, read after 18 hours, read-out: MIC
Protocol: (§2) The microdilution method recommended by the Clinical and Laboratory Standard Institute [M07-A8, Vol. 29, N^o 2] was used. The activity of indolic compounds was tested against 29 bacterial strains belonging to 17 different species and 12 different genera (Staphylococcus, Streptococcus, Enterococcus, Listeria, Bacillus, Haemophilus, Escherichia, Klebsiella, Enterobacter, Serratia, Pseudomonas, and Acinetobacter). Bacterial inocula were prepared in Mueller Hinton broth (MH2, bioMerieux, Marcy L'Etoile, France), supplemented with 10% sheep blood for fastidious species (i.e., Streptococcus pneumoniae and Haemophilus influenzae). They were dispensed in 96 well microtiter plates (5×10^5 CFU/ml of final inoculum). Indolic compounds were added to the wells as to obtain two-fold serial concentrations (0.50-128 mg/L of final concentrations). Plates were incubated at 37° C. in ambient air, or at 37° C. in 5% CO2 enriched atmosphere for fastidious species. […] Drug-free cultures served as growth controls. Cultures receiving gentamicin, ciprofloxacin or cefotaxime served as positive controls.

[5] = tested on: S. epidermidis CIP 81.55; assay: MIC microdilution (Table I-1); format: cell-based, Staphylococcus epidermidis; details: Staphylococcus epidermidis, CIP81, read after 18 hours, read-out: MIC
Protocol: as §2

[6] = tested on: S. epidermidis ATCC 12228; assay: MIC microdilution (Table I-1); format: cell-based, Staphylococcus epidermidis; details: Staphylococcus epidermidis, ATCC12228, read after 18 hours, read-out: MIC
Protocol: as §2

[7] = tested on: S. pyogenes (group A) CIP 104226; assay: MIC microdilution (Table I-1); format: cell-based; details: Streptococcus pyogenes, CIP104226, read after 18 hours, read-out: MIC
Protocol: as §2

[8] = tested on: Haemophilus influenzae ATCC 49766; assay: MIC microdilution (Table I-1); format: cell-based
Protocol: as §2

[9] = tested on: Escherichia coli ATCC 25922; assay: MIC microdilution (Table I-1); format: cell-based; details: ATCC25922, read after 18 hours
Protocol: as §2

[10] = tested on: Klebsiella pneumoniae ATCC 35657; assay: MIC microdilution (Table I-1); format: cell-based; details: ATCC35657, read after 18 hours, read-out: MIC
Protocol: as §2

[11] = tested on: Listeria innocua CIP 80.11; assay: MIC microdilution (Table I-1); format: cell-based; details: CIP80, read after 18 hours, read-out: MIC
Protocol: as §2

[12] = tested on: Bacillus subtilis CIP 5262; assay: MIC microdilution (Table I-1); format: cell-based; details: CIP5262, read after 18 hours, read-out: MIC
Protocol: as §2

[13] = tested on: Serratia marcescens CIP 103551; assay: MIC microdilution (Table I-1); format: cell-based; details: CIP103551, read after 18 hours
Protocol: as §2

[14] = tested on: S. mitis CIP 103335; assay: MIC microdilution (Table I-1); format: cell-based; details: Streptococcus mitis, CIP103335, read after 18 hours, read-out: MIC
Protocol: as §2

[15] = tested on: S. pneumoniae ATCC 49619; assay: MIC microdilution (Table I-1); format: cell-based; details: Streptococcus pneumoniae, ATCC49619, read after 18 hours
Protocol: as §2

[16] = tested on: Enterobacter cloacae ATCC 13047; assay: MIC microdilution (Table I-1); format: cell-based; details: ATCC13047, read after 18 hours
Protocol: as §2

[17] = tested on: Pseudomonas aeruginosa CIP 5933; assay: MIC microdilution (Table I-1); format: cell-based; details: CIP5933, read after 18 hours
Protocol: as §2

[18] = tested on: S. aureus ATCC 25923; assay: MIC microdilution (Table I-1); format: cell-based; details: Staphylococcus aureus, ATCC25923, read after 18 hours
Protocol: as §2

[19] = tested on: E. faecalis ATCC 29212; assay: MIC microdilution (Table I-1); format: cell-based; details: Enterococcus faecalis, ATCC29212, read after 18 hours, read-out: MIC
Protocol: as §2

[20] = tested on: E. faecium CIP 54.32; assay: MIC microdilution (Table I-1); format: cell-based; details: Enterococcus faecium, CIP54, read after 18 hours, read-out: MIC
Protocol: as §2

[21] = tested on: Acinetobacter baumanii ATCC 19606; assay: MIC microdilution (Table I-1); format: cell-based; details: Acinetobacter baumannii, ATCC19606, read after 18 hours
Protocol: as §2

[22] = tested on: S. agalactiae (group B) ATCC 12400; assay: MIC microdilution (Table I-1); format: cell-based; details: Streptococcus agalactiae, ATCC12400, read after 18 hours, read-out: MIC
Protocol: as §2

[23] = tested on: S. aureus SA-1199B; assay: MIC microdilution (Table I-1); format: cell-based, Staphylococcus aureus; details: Staphylococcus aureus, SA1199B, 18 h
Protocol: as §2

[24] = tested on: S. aureus ATCC 29213; assay: MIC microdilution (Table I-1); format: cell-based, Staphylococcus aureus; details: Staphylococcus aureus, ATCC29213, read after 18 hours, read-out: MIC
Protocol: as §2

[25] = tested on: S. aureus CIP 65.6; assay: MIC microdilution (Table I-1); format: cell-based, Staphylococcus aureus; details: Staphylococcus aureus, CIP65, read after 18 hours, read-out: MIC
Protocol: as §2

[26] = tested on: S. aureus ATCC 9144; assay: MIC microdilution (Table I-1); format: cell-based, Staphylococcus aureus; details: Staphylococcus aureus, ATCC9144, read after 18 hours, read-out: MIC
Protocol: as §2

[27] = tested on: S. aureus CIP 65.25 (MRSA); assay: MIC microdilution (Table I-1); format: cell-based, Staphylococcus aureus; details: Staphylococcus aureus, read after 18 hours, read-out: MIC
Protocol: as §2

[28] = tested on: S. aureus CIP 103428; assay: MIC microdilution (Table I-1); format: cell-based, Staphylococcus aureus; details: Staphylococcus aureus, CIP103428, read after 18 hours, read-out: MIC
Protocol: as §2

[29] = tested on: S. aureus ATCC 33592 (MRSA); assay: MIC microdilution (Table I-1); format: cell-based, Staphylococcus aureus; details: Staphylococcus aureus, read after 18 hours, read-out: MIC
Protocol: as §2

[30] = tested on: S. aureus ATCC 106414 (VISA); assay: MIC microdilution (Table I-1); format: cell-based, Staphylococcus aureus; details: Staphylococcus aureus, read after 18 hours, read-out: MIC
Protocol: as §2

[31] = tested on: S. aureus ATCC 6538; assay: MIC microdilution (Table I-1); format: cell-based, Staphylococcus aureus; details: Staphylococcus aureus, ATCC6538, read after 18 hours, read-out: MIC
Protocol: as §2

[32] = tested on: S. pneumoniae ATCC 6303; assay: MIC microdilution (Table I-1); format: cell-based, Streptococcus pneumoniae; details: Streptococcus pneumoniae, ATCC6303, read after 18 hours, read-out: MIC
Protocol: as §2

[33] = tested on: 29 bacterial strains belonging to 17 different species; assay: Intrinsic antibacterial activity, MIC on the bacterial panel; format: cell-based; details: result in words
Protocol: as §2

SMILES	inhibition at 10 µM [1] [%]	inhibition at 1 µM [1] [%]	inhibition at 10 µM [2] [%]	inhibition at 1 µM [2] [%]	inhibition at 10 µM [3] [%]	inhibition at 1 µM [3] [%]	MIC [4] [µg/mL]	MIC [5] [µg/mL]	MIC [6] [µg/mL]	MIC [7] [µg/mL]	MIC [9] [µg/mL]	MIC [10] [µg/mL]	MIC [11] [µg/mL]	MIC [12] [µg/mL]	MIC [13] [µg/mL]	MIC [14] [µg/mL]	MIC [15] [µg/mL]	MIC [16] [µg/mL]	MIC [17] [µg/mL]	MIC [18] [µg/mL]	also measured
CC(C)(C)OC(=O)NCC(NC(=O)C(=O)c1c[nH]c2cc(Br)ccc12)c1c[nH]c2ccccc12 (centres unmarked) [Compound 3, tert-Butyl(2-(2-(6-bromo-1H-indol-3-yl)-2-oxoacetamido)-2-(1H-indol-3-yl)ethyl) carbamate]	98 ± 1	0	100 ± 1	4	97 ± 1	0	> 16	8 (≈ 15.2 µM)	4 (≈ 7.61 µM)	128 (≈ 244 µM)	> 128	> 128	> 128	128 (≈ 244 µM)	> 128	> 128	> 128	> 128	> 128	4 (≈ 7.61 µM)	MIC ([8]; ATCC49766, Haemophilus influenzae ATCC 49766, read after 18 hours, read-out: MIC): 32 µg/mL (≈ 60.9 µM); MIC [19]: > 128 µg/mL; MIC [20]: 32 µg/mL (≈ 60.9 µM); MIC [21]: > 128 µg/mL; MIC [22]: 64 µg/mL (≈ 122 µM); MIC [23]: 4 µg/mL (≈ 7.61 µM); MIC [24]: 2 µg/mL (≈ 3.81 µM); MIC [25]: 4 µg/mL (≈ 7.61 µM); MIC [26]: 4 µg/mL (≈ 7.61 µM); MIC [27]: 4 µg/mL (≈ 7.61 µM); MIC [28]: 4 µg/mL (≈ 7.61 µM); MIC [29]: 4 µg/mL (≈ 7.61 µM); MIC [30]: 4 µg/mL (≈ 7.61 µM); MIC [31]: 4 µg/mL (≈ 7.61 µM); MIC [32]: 64 µg/mL (≈ 122 µM)
CC(C)(C)OC(=O)NCC(NC(=O)C(F)(F)F)c1c[nH]c2ccc(Br)cc12 (centres unmarked) [Compound 13, tert-Butyl(2-(5-bromo-1H-indol-3-yl)-2-(2,2,2-trifluoroacetamido)ethyl)carbamate]							> 128	> 128	> 128	128 (≈ 284 µM)	> 128	> 128	> 128	128 (≈ 284 µM)	> 128	> 128	128 (≈ 284 µM)	> 128	> 128	> 128	MIC ([8]; Haemophilus influenzae, ATCC49766, 18 h): > 128 µg/mL; MIC [19]: > 128 µg/mL; MIC [20]: > 128 µg/mL; MIC [21]: > 128 µg/mL; MIC [22]: 128 µg/mL (≈ 284 µM); intrinsic antibacterial activity [33]: lack of intrinsic antibacterial activity; MIC [23]: 64 µg/mL (≈ 142 µM); MIC [24]: 128 µg/mL (≈ 284 µM); MIC [25]: > 128 µg/mL; MIC [26]: > 128 µg/mL; MIC [27]: > 128 µg/mL; MIC [28]: 64 µg/mL (≈ 142 µM); MIC [29]: > 128 µg/mL; MIC [30]: > 128 µg/mL; MIC [31]: 64 µg/mL (≈ 142 µM); MIC [32]: 128 µg/mL (≈ 284 µM)
O=C(C(=O)N1CCOCC1c1c[nH]c2ccc(Br)cc12)c1c[nH]c2ccc(Br)cc12 (centres unmarked) [Compound 6e, 1-(5-Bromo-1H-indol-3-yl)-2-(3-(5-bromo-1H-indol-3-yl)morpholino)ethane-1,2-dione]	0	0	29 ± 6	0	24 ± 6	3															

— US9321722B2, “Bis-indolic derivatives, their uses in particular as antibacterials” (UNIVERSITE JOSEPH FOURIER, priority 2011, dated 2016)
